Values quoted from earlier work, collected in patent US8841262B2, “Agent for inhibiting peritoneal membrane thickening” (CCI Corporation, priority 2009, dated 2014).

Assays:
[1] = system: vascular endothelial growth factor (VEGF); settings: administration of TNP-470, reported in Non-Patent Literature 1
[2] = system: peritoneal membrane thickening; settings: ganciclovir infused into the abdominal cavity, in 2 weeks; reported in Non-Patent Literature 3

SMILES	myofibroblastic cell proliferation [1]	neoangiogenesis [1]	peritoneal membrane thickening after chlorhexidine [2]
CO[C@@H]1[C@H](OC(=O)NC(=O)CCl)CC[C@]2(CO2)[C@H]1[C@@]1(C)O[C@@H]1CC=C(C)C [TNP-470]	suppression	inhibition	–
Nc1nc(O)c2ncn(COC(CO)CO)c2n1 [ganciclovir]	–	–	alleviated
